Laboratory results from patent publication US20020193369A1, “Antifungal compounds and uses therefor” (priority 2000, published 2002).
Converted amounts (≈) assume the structure as drawn. Like-named read-outs stand apart in the source and are kept apart here. Marks after values point to notes of the source that are not given here.

Legend:
[1] = cited from earlier work
[2] = test system: C. albicans strain ATCC 90028; assay: Fold reduction of live cells after 24 hr incubation with combinations of azoles and potentiators; type: cell-based, Candida albicans
Experimental: (§1) Eleven structural analogs of INF 801 and fourteen analogs of INF 802 were purchased from ChemBridge, Maybridge and Aldrich and tested for activity. […] The numbers presented in these two tables indicate the -fold reduction in the number of live cells after 24 hour incubation with the combinations of azoles and potentiators. The higher the number, the higher the fungicidal activity of the combination. Note that concentrations of drags are somewhat different in the two tables, so the comparison between the two tables is not meaningful. [table] [table]

C. albicans [3] = assay: Fungicidal synergy with fluconazole against C. albicans (active concentration of leads and analogs); type: cell-based, Candida albicans; conditions: for activity (concentration synergizing with fluconazole to a fungicidal effect): fluconazole 32 μg/ml; for concentration at which fungicidal activity is observed: combined with high concentrations of fluconazole (16 μg/ml and more)
Experimental: In summary, the performed screens of the chemical library identified a number of interesting potentiators of azole activity. Of these potentiators the inventors chose for further development two lead compounds, INF 801 and INF 802. […] Unlike compound INF 799, which is active at very low concentration (2 ng/ml, see above), INF 801 and INF 802 need to be present at relatively high concentrations to be active. When combined with high concentrations of fluconazole (16 μg/ml and more), their fungicidal activity is observed at 1.25 or 2.5 μg/ml, respectively. At concentrations of the azole that are clinically relevant (4 μg/ml), they are active only at ˜5-10 μg/ml.
as §1, with “meaningful.” for “meaningful. [table] [table]”

[4] = test system: C. albicans isolates (sensitive; isolate #4 over expressing MDR1); assay: microbe, parasite or virus in culture; type: cell-based; conditions: Candida albicans
[5] = test system: Candida krusei Strain M13C4; assay: MIC of fluconazole for Candida krusei with lead compounds; type: cell-based; conditions: for MIC of fluconazole: Fluconazole + lead compound
C. albicans isolates = conditions: cited from earlier work
C. albicans [6] = assay: Paper disk zones of inhibition on YPD agar plates inoculated with C. albicans; type: cell-based, Candida albicans; conditions: for zone of inhibition, combination with fluconazole: disk with fluconazole 1 mg/ml + compound 2.5 mg/ml
[7] = test system: Candida krusei Strain M13C4; assay: Killing of Candida krusei by fluconazole combinations (CFU/ml after 24 hours); type: cell-based; conditions: for CFU/ml after 24 hours incubation: inoculated at 6000 CFU/ml; for effect in combination with fluconazole on C. kruzei: fluconazole at concentration exceeding its MIC; for effect of compound alone on C. kruzei: not shown
[8] = test system: sterol composition of C. Albicans; assay: TLC analysis of sterols of C. albicans; type: cell-based, Candida albicans; conditions: 24 hours
[9] = test system: Candida krusei Strain M13C4; conditions: cited from earlier work
C. albicans [10] = assay: Time-kill experiments in liquid culture of C. albicans; type: cell-based, Candida albicans; conditions: for effect on growth of the yeast, compound alone: 10 μg/ml, no fluconazole; for colonies from plating of a milliliter of culture: combination with fluconazole, culture initially 3000 CFU/ml; for drop in number of live cells after 24 hours, combination with fluconazole / drop in number of live cells after 48 hours, combination with fluconazole: fluconazole 32 μg/ml + compound 10 μg/ml
C. albicans [11] = assay: Growth of C. albicans in liquid culture with compound alone (without fluconazole); type: cell-based, Candida albicans
Solubility limit = type: physicochemical; conditions: liquid culture of C. albicans
[12] = compound at 10 μg/ml, inoculum 7600 CFU/ml
[13] = disk soaked in fluconazole 1 mg/ml or compound 2.5 mg/ml in DMSO
[14] = fluconazole 128 μg/ml + compound 20 μg/ml
[15] = compound at 5 μg/ml, inoculum 8000 CFU/ml

Clc1ccccc1C(c1ccccc1)(c1ccccc1)n1ccnc1 [Clotrimazole]
absorption after application to the skin ([1]; in vivo): less than 0.5% | absorption from the vagina ([1]; in vivo): 3-10%

OCC(O)Cn1c2ccc(Br)cc2c2cc(Br)ccc21 (stereo not shown) [Compound S243213]
fold reduction of the concentration of live cells, + Fluconazole, 16 μg/ml [2, 12]: 6.9 fold | fold reduction of the concentration of live cells, + Itraconazole, 0.5 μg/ml [2, 12]: 6.3 fold | fold reduction of the concentration of live cells, + Ketaconazole, 0.5 μg/ml [2, 12]: 7.8 fold | activity (concentration synergizing with fluconazole to a fungicidal effect) (C. albicans [3]): 0.6 µg/mL

OC(CN1CCC(/C=C/C2=CC=CCC2)CC1)Cn1c2ccccc2c2ccccc21 (stereo not shown) [DV 236683]
activity (concentration synergizing with fluconazole to a fungicidal effect) (C. albicans [3]): 5 µg/mL

OC(CN1CCC(/C=C/C2=CC=CCC2)CC1)Cn1c2ccc(Cl)cc2c2cc(Cl)ccc21 (stereo not shown) [DV 236687]
activity (concentration synergizing with fluconazole to a fungicidal effect) (C. albicans [3]): 10 µg/mL

OCC(O)Cn1c2ccc(Cl)cc2c2cc(Cl)ccc21 (stereo not shown) [DV 236818]
activity (concentration synergizing with fluconazole to a fungicidal effect) (C. albicans [3]): 5 µg/mL

Clc1ccc(COC(Cn2ccnc2)c2ccc(Cl)cc2Cl)cc1 (stereo not shown) [Econazole]
fraction absorbed into the blood ([1]; in vivo): Less than 1%

OC(Cn1cncn1)(Cn1cncn1)c1ccc(F)cc1F [Fluconazole, reference compound]
MIC80 ([4]; read-out: MIC80 of fluconazole in sensitive isolates): 0.5 to 1 µg/mL (≈ 1.63 to 3.27 µM) | MIC ([4]; read-out: MIC of fluconazole, isolate #4): 8 µg/mL | MIC ([5]; Pichia kudriavzevii, STRAINM13C4, Fluconazole alone): 64 µg/mL | MIC of fluconazole after 48 hours (C. albicans isolates; many isolates): exceeds 64 μg/ml | MIC of fluconazole after 24 hours of incubation (C. albicans isolates; most isolates): < 4 µg/mL | absorption from the GI tract ([1]; in vivo): almost completely absorbed | zone of inhibition, single agent (C. albicans [6]): pronounced zone of growth inhibition | effect of fluconazole alone on C. kruzei ([7]; 128 μg/ml): strongly fungistatic | CFU/ml after 24 hours incubation ([7]; fluconazole 128 μg/ml alone): 6230 CFU/ml | effect of fluconazole on ergosterol ([8]; increasing concentrations of fluconazole): decrease in the amount of ergosterol | MIC of fluconazole for C. kruzei (general range) [9]: 8 to 128 µg/mL | change in number of CFUs after 48 hours, fluconazole alone (C. albicans [10]; fluconazole 32 μg/ml, 48 hours): four orders of magnitude

O=C(O)CCn1c2ccc(Cl)cc2c2cc(Cl)ccc21 [INF 801]
MIC of fluconazole [5]: 16 µg/mL | fold reduction of the concentration of live cells, + Fluconazole, 16 μg/ml [2, 12]: 48* fold | fold reduction of the concentration of live cells, + Itraconazole, 0.5 μg/ml [2, 12]: 30 fold | fold reduction of the concentration of live cells, + Ketaconazole, 0.5 μg/ml [2, 12]: 28 fold | concentration at which fungicidal activity is observed (C. albicans [3]): 1.25 µg/mL | growth within zones after a week of incubation, combination with fluconazole (C. albicans [6]): no growth | zone of inhibition, single agent (C. albicans [6]; [13]): narrow zones of inhibition | zone of inhibition, combination with fluconazole (C. albicans [6]): large zones of inhibition lacking any growth | effect in combination with fluconazole on C. kruzei [7]: strongly fungicidal | CFU/ml after 24 hours incubation [7, 14]: 20 CFU/ml | effect of compound alone on C. kruzei [7]: harmless | sterol pattern with fluconazole in the presence of INF 801 ([8]; differing concentrations of fluconazole): substituting sterols accumulate in much smaller amounts than in the control | effect on growth of the yeast, compound alone (C. albicans [10]): very little effect on the growth of the yeast | colonies from plating of a milliliter of culture (C. albicans [10]): no colonies | drop in number of live cells after 24 hours, combination with fluconazole (C. albicans [10]): two orders of magnitude | drop in number of live cells after 48 hours, combination with fluconazole (C. albicans [10]; 48 hours): more than three orders of magnitude | concentration affecting growth of C. albicans without fluconazole (C. albicans [11]): exceeding 30 μg/ml

O=C(O)C12c3ccccc3C(c3ccccc31)c1ccccc12 [INF 802]
MIC of fluconazole [5]: 32 µg/mL | fold reduction of the concentration of live cells, + Fluconazole, 16 μg/ml [2, 15]: 5.5 fold | fold reduction of the concentration of live cells, + Itraconazole, 1 μg/ml [2, 15]: 5.0 fold | fold reduction of the concentration of live cells, + Ketaconazole, 1 μg/ml [2, 15]: 6.0 fold | solubility (Solubility limit): 80 µg/mL (≈ 268 µM) | concentration at which fungicidal activity is observed (C. albicans [3]): 2.5 µg/mL | growth within zones after a week of incubation, combination with fluconazole (C. albicans [6]): no growth | zone of inhibition, single agent (C. albicans [6]; [13]): narrow zones of inhibition | zone of inhibition, combination with fluconazole (C. albicans [6]): large zones of inhibition lacking any growth | effect in combination with fluconazole on C. kruzei [7]: strongly fungicidal | CFU/ml after 24 hours incubation [7, 14]: 20 CFU/ml | effect of compound alone on C. kruzei [7]: harmless | effect on growth of the yeast, compound alone (C. albicans [10]): very little effect on the growth of the yeast | colonies from plating of a milliliter of culture (C. albicans [10]): no colonies | drop in number of live cells after 24 hours, combination with fluconazole (C. albicans [10]): two orders of magnitude | drop in number of live cells after 48 hours, combination with fluconazole (C. albicans [10]; 48 hours): more than three orders of magnitude | concentration affecting growth of C. albicans without fluconazole (C. albicans [11]): > 80 µg/mL

CCC(C)n1ncn(-c2ccc(N3CCN(c4ccc(OCC5COC(Cn6cncn6)(c6ccc(Cl)cc6Cl)O5)cc4)CC3)cc2)c1=O (stereo not shown) [Itraconazole]
absorption in the fasting state relative to drug taken with food ([1]; in vivo, po): 30%

CC(=O)N1CCN(c2ccc(OCC3COC(Cn4ccnc4)(c4ccc(Cl)cc4Cl)O3)cc2)CC1 (stereo not shown) [Ketoconazole]
peak plasma concentrations ([1]; oral doses 200-800 mg): 4 to 20 µg/mL

O=CC12c3ccccc3C(c3ccccc31)c1ccccc12 [S 060128]
fold reduction of the concentration of live cells, + Fluconazole, 16 μg/ml [2, 15]: 36 fold | fold reduction of the concentration of live cells, + Itraconazole, 1 μg/ml [2, 15]: 69 fold | fold reduction of the concentration of live cells, + Ketaconazole, 1 μg/ml [2, 15]: 380 fold
